Among the data in PubChem BioAssay AID624303 (The Scripps Research Institute Molecular Screening Center, 2012) are inhibition values, retold here.

SMILES strings stand for the structures. Activity calls are given as the source filed them.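 The calls were made as follows: active = inhibition of at least 2%; inactive = inhibition below 2%.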

Sequence of Tyrosine-protein kinase ABL1 (Homo sapiens) (P00519 whole entry, looked up): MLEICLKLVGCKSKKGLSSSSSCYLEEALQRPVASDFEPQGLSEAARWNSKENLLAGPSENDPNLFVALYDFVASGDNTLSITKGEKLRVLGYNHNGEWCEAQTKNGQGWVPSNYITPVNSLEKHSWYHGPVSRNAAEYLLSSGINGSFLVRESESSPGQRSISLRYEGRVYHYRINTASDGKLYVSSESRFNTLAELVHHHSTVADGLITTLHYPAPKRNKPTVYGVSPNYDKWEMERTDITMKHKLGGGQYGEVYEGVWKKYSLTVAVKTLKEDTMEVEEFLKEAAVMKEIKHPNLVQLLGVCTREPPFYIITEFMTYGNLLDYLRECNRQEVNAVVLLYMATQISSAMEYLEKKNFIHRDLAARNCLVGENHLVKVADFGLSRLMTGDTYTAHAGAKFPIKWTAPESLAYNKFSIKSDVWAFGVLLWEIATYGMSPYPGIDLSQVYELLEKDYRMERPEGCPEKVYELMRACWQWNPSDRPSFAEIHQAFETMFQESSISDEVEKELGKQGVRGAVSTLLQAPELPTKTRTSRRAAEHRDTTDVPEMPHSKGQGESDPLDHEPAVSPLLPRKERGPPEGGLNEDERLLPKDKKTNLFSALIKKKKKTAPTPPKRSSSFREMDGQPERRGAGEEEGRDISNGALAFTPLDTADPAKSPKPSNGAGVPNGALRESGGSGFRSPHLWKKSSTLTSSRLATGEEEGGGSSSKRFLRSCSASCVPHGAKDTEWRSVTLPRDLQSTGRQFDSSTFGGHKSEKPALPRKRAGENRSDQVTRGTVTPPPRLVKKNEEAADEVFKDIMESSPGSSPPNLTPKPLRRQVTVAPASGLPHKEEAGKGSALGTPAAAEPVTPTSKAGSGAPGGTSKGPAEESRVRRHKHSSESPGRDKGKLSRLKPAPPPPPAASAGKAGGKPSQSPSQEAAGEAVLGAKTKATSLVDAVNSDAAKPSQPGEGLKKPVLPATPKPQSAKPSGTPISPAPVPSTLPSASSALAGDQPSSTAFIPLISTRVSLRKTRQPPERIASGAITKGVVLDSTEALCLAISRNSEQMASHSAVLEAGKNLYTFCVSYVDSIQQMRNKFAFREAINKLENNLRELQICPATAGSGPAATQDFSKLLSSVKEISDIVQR

The experiment concerns the target Tyrosine-protein kinase ABL1 (Homo sapiens) (UniProt P00519). Briefly: ABL1 kinase inhibition, RIN1-independent, late-stage follow-up, RIN1-ABL interaction inhibitor project, biochemical, purified CRK substrate, chemiluminescent immunoblot, powders, round 1 (AID 624303). Particulars: purified ABL1 phosphorylating CRK, anti-pTyr chemiluminescence blot; at 10 µM; hits give high values. A general note: Immunoblotting shows a protein as a band on a membrane.
For the compound `O=C(Cc1ccc(NC(=O)C2CCN(C(=O)c3ccccc3)CC2)cc1)Nc1ccc(C(=O)N2CCOCC2)cc1`, the inhibition is 0% (inactive).

Turning to `O=C(c1cc(COc2cccc3cccnc23)on1)N1CCC[C@H]1CO`, the inhibition is 0% (inactive).

Turning to `COc1ccc2oc(C(=O)NCC(c3ccco3)N(C)C)c(C)c2c1` (configuration not stated), the inhibition is 0% (inactive). Consider `CN(Cc1c(F)cccc1Cl)C(=O)CNC(=O)c1ccc2c(c1)OCO2`, for which the inhibition was 0% (inactive). The figure for `CN(CCc1ccccc1)C(=O)c1ccc(NC(=O)Cc2ccc(NC(=O)C3CCN(C(=O)c4ccccc4)CC3)cc2)cc1` is 0% (inactive). The figure for `CN(C(=O)c1ccc(NC(=O)Cc2ccc(NC(=O)C3CCN(C(=O)c4cccc(F)c4)CC3)cc2)cc1)C1CC1` is 0% (inactive). As for `CN(CCc1ccccc1)C(=O)c1ccc(NC(=O)Cc2ccc(NC(=O)C3CCN(C(=O)C4CCCC4)CC3)cc2)cc1`, the inhibition was 0% (inactive). Consider `Cc1c(C(=O)NCC(c2ccco2)N(C)C)oc2c(Cl)cccc12` (configuration not stated), for which the inhibition was 0% (inactive).

In the case of `CC(=O)Nc1ccc(NC(=O)C2CCN(C(=O)c3cccs3)CC2)cc1`, the inhibition was 0% (inactive). Turning to `CCOC(=O)N1CCC(NC(=O)CCc2nc(C3=CCN(C)CC3)no2)CC1`, the inhibition is 0% (inactive). For `O=c1cc(OCc2ccccc2)cc[nH]1`, the inhibition is 0% (inactive). For the compound `N#Cc1ccccc1Sc1ccccc1C(=O)NCC(c1ccco1)N1CCCC1` (configuration not stated), the inhibition is 0% (inactive). For `CN(C(=O)c1ccc(NC(=O)Cc2ccc(NC(=O)C3CCN(C(=O)c4ccccc4)CC3)cc2)cc1)C1CC1`, the inhibition is 0% (inactive). The figure for `O=C(Cc1ccc(NC(=O)C2CCN(C(=O)C3CCCCC3)CC2)cc1)Nc1ccc(C(=O)N2CCOCC2)cc1` is 0% (inactive); for `CSc1ccccc1OCc1cc(C(=O)N2CCNC(=O)C2)no1` it is 0% (inactive); for `CN(C(=O)c1ccc(NC(=O)Cc2ccc(NC(=O)C3CCN(C(=O)c4ccc(F)cc4)CC3)cc2)cc1)C1CC1` it is 0% (inactive). With `COc1cccc(CSc2nnc(CSc3nc4nc(C)cc(C)n4n3)s2)c1` the figure was 0% (inactive).

For the compound `COc1ccc(CCNc2cc(=O)[nH]c(N)n2)cc1`, the inhibition was 0% (inactive). Regarding `O=C(Cc1ccc(NC(=O)C2CCN(C(=O)C3CCCC3)CC2)cc1)Nc1ccc(C(=O)N2CCOCC2)cc1`, the inhibition was 0% (inactive). In the case of `CCOC(=O)N1CCN(C(=O)Nc2ccc(NC(=O)N3CCN(C(=O)OCC)CC3)cc2)CC1`, the inhibition is 0% (inactive).

On to `Cn1c(=O)c2c(nc(-n3ccnc3)n2Cc2ccc(Cl)cc2Cl)n(C)c1=O`, for which the inhibition was 0% (inactive). Take `COc1ccc(C(=O)N2CCC(C(=O)Nc3ccc(CC(=O)Nc4ccc(C(=O)N(C)C5CC5)cc4)cc3)CC2)cc1`: the inhibition was 0% (inactive).

As a reminder, the inhibition is the percentage by which the read-out fell short of the control.
